Results: the NIST ThermoML archive (doi:10.1016/j.jct.2010.08.010)

Conditions: Liquid, Buoyancy - hydrostatic balance with magnetic suspension - one sinker

CCO [ethanol]
Conditions | mass density [kg/m3]
233.15 K, 103.29 kPa | 840.318
233.15 K, 1104.7 kPa | 840.959
233.15 K, 2004.6 kPa | 841.531
233.15 K, 4076.8 kPa | 842.835
233.15 K, 6134.1 kPa | 844.107
233.15 K, 8092.6 kPa | 845.306
233.15 K, 10007 kPa | 846.455
233.15 K, 12137 kPa | 847.721
233.15 K, 14139 kPa | 848.897
233.15 K, 16099 kPa | 850.035
233.15 K, 18082 kPa | 851.168
233.15 K, 20011 kPa | 852.258
233.15 K, 22096 kPa | 853.419
233.15 K, 24040 kPa | 854.493
233.15 K, 25991 kPa | 855.559
233.15 K, 27978 kPa | 856.635
233.15 K, 29956 kPa | 857.691
253.15 K, 102.67 kPa | 823.303
253.15 K, 1104.1 kPa | 824.013
253.15 K, 2003.9 kPa | 824.651
253.15 K, 4116.4 kPa | 826.119
253.15 K, 6065.7 kPa | 827.455
253.15 K, 8137.6 kPa | 828.849
253.15 K, 10136 kPa | 830.174
253.15 K, 12072 kPa | 831.443
253.15 K, 14126 kPa | 832.763
253.15 K, 16133 kPa | 834.037
253.15 K, 17950 kPa | 835.17
253.15 K, 19863 kPa | 836.357
253.15 K, 22055 kPa | 837.687
253.15 K, 23993 kPa | 838.859
253.15 K, 25929 kPa | 840.004
253.15 K, 27985 kPa | 841.212
253.15 K, 30009 kPa | 842.379
273.15 K, 102.91 kPa | 806.406
273.15 K, 1099 kPa | 807.191
273.15 K, 2003.9 kPa | 807.905
273.15 K, 4161.8 kPa | 809.57
273.15 K, 6026.6 kPa | 810.981
273.15 K, 8023.2 kPa | 812.466
273.15 K, 10006 kPa | 813.916
273.15 K, 12107 kPa | 815.421
273.15 K, 13929 kPa | 816.718
273.15 K, 15980 kPa | 818.142
273.15 K, 17875 kPa | 819.435
273.15 K, 20011 kPa | 820.885
273.15 K, 21848 kPa | 822.104
273.15 K, 24050 kPa | 823.548
273.15 K, 25880 kPa | 824.728
273.15 K, 27865 kPa | 826.002
273.15 K, 29956 kPa | 827.312
293.15 K, 103.01 kPa | 789.433
293.15 K, 1103.9 kPa | 790.313
293.15 K, 2004 kPa | 791.096
293.15 K, 4147.8 kPa | 792.937
293.15 K, 6147.5 kPa | 794.616
293.15 K, 8110.8 kPa | 796.232
293.15 K, 10008 kPa | 797.758
293.15 K, 11860 kPa | 799.229
293.15 K, 13880 kPa | 800.802
293.15 K, 15954 kPa | 802.391
293.15 K, 17852 kPa | 803.817
293.15 K, 19967 kPa | 805.383
293.15 K, 21842 kPa | 806.743
293.15 K, 23888 kPa | 808.2
293.15 K, 25963 kPa | 809.658
293.15 K, 27862 kPa | 810.975
293.15 K, 30031 kPa | 812.452
313.15 K, 102.5 kPa | 772.101
313.15 K, 1103.5 kPa | 773.094
313.15 K, 2103.5 kPa | 774.069
313.15 K, 4116 kPa | 775.994
313.15 K, 6079.7 kPa | 777.835
313.15 K, 8130.4 kPa | 779.714
313.15 K, 10007 kPa | 781.394
313.15 K, 12116 kPa | 783.241
313.15 K, 14081 kPa | 784.928
313.15 K, 16092 kPa | 786.617
313.15 K, 18056 kPa | 788.235
313.15 K, 19919 kPa | 789.747
313.15 K, 22046 kPa | 791.432
313.15 K, 24130 kPa | 793.056
313.15 K, 26107 kPa | 794.571
313.15 K, 27987 kPa | 795.987
313.15 K, 29995 kPa | 797.476
333.15 K, 1102.5 kPa | 755.18
333.15 K, 2002.7 kPa | 756.173
333.15 K, 4085.9 kPa | 758.43
333.15 K, 6133 kPa | 760.589
333.15 K, 8031.9 kPa | 762.538
333.15 K, 9967.1 kPa | 764.48
333.15 K, 12099 kPa | 766.557
333.15 K, 13992 kPa | 768.358
333.15 K, 16124 kPa | 770.342
333.15 K, 18019 kPa | 772.071
333.15 K, 20012 kPa | 773.85
333.15 K, 22050 kPa | 775.625
333.15 K, 24136 kPa | 777.409
333.15 K, 26130 kPa | 779.08
333.15 K, 28069 kPa | 780.679
333.15 K, 30018 kPa | 782.258
353.15 K, 1101.8 kPa | 736.102
353.15 K, 2002.9 kPa | 737.255
353.15 K, 4009.6 kPa | 739.749
